Test results as given in patent US20190365645A1, “DRUG DELIVERY ARTICLES FOR GRAM-LEVEL DOSING” (Massachusetts Institute of Technology, priority 2018, published 2019).
Each block holds one molecule with its values, some of them ahead of it.

What was measured:
[1] = In vitro drug release from drug-vinylpolysiloxane pills/articles (simulated gastric fluid or water); type: physicochemical; conditions: for in vitro release from drug-VPS pills: SGF (isoniazid and rifampicin in water)
Description: Articles with a series of 30 pills were made so that there was 1 gram of doxycycline hyclate in 2 grams of vinylpolysiloxane. Pills were coated with either cellulose acetate butyrate (CAB) or with Eudragit RS PO. A control with no coatings was also made. The articles were immersed in simulated gastric fluid, and the cumulative release of doxycycline hyclate was measured for more than 26 days.
Thickness of coatings was tuned by increasing the spray volume.
Individual pills made of drug-VPS for doxycycline hyclate, isoniazid, ethambutol, pyrazinamide, moxifloxacin were used to evaluate long-term release kinetics in SGF. Pill formulations were incubated in a New Brunswick Innova 44 shaking incubator (Eppendorf) at 37° C. and 200 rpm in 50 mL of SGF for up to 28 days, with solution exchanges at specified time intervals. Drug concentrations were then analyzed using a High-Performance Liquid Chromatography (HPLC). Because of the lack of a validated HPLC method for evaluating isoniazid in SGF, water was used to study differences between isoniazid formulations. Three intact rifampicin devices were fabricated by loading 2 grams of drug into VPS pills. The devices were incubated in 500 mL of nanopure water for up to 26 days in a shaking incubator at 37° C. and 200 rpm, with media exchange at specified time intervals. […] The drug concentrations samples were then measured on an Infinite M200Pro (Tecan) reader (absorbance, 475 nm).
An Agilent 1260 Infinity II HPLC system (Agilent Technologies, Inc.) equipped with a Model 1260 quaternary pump, Model 1260 High Performance autosampler, Model 1260 thermostat, Model 1260 Infinity Thermostatted Column Compartment control module, and Model 1260 diode array detector was utilized. Data processing and analysis was performed using OpenLab CDS ChemStation (Agilent Technologies, Inc.). All solvents used were purchased from Sigma-Aldrich Corporation. For doxycycline hyclate, chromatographic isocratic separation was carried out on an Agilent 4.6×50 mm AdvanceBio RP-mAb SB-C8 analytical column with 3.5 μm particles, maintained at 55° C. The optimized mobile phase consisted of 20 mM dipotassium phosphate buffer and acetonitrile (pH 6 adjusted with triethylamine) [60:40 (v/v)] at a flow rate of 0.85 mL/min over a 4 min run time. The injection volume was 5 μl, and the selected ultraviolet (UV) detection wavelength was 293 nm.

[2] = pig, in vivo
[3] = reason water was used as release medium; cited from earlier work

Molecule: NNC(=O)c1ccncc1 [isoniazid]
in vitro release from drug-VPS pills [1]: able to release

Molecule: NC(=O)c1cnccn1 [pyrazinamide]
in vitro release from drug-VPS pills [1]: able to release

Molecule: doxycycline hyclate
duration drug detectable in serum [2]: at least 28 days
duration of sustained drug release, non-zero concentrations in the blood [2]: at least 7 days
time after which no drug was detectable in serum [2]: 3 ays
time to detectable serum concentrations [2]: ≤ 15 min
duration of drug release (cumulative release) ([1]; articles of 30 pills, 1 gram drug in 2 grams vinylpolysiloxane, simulated gastric fluid): more than 26 days
release kinetic profile ([1]; formulations coated with Eudragit RS 100, SGF): linear kinetic profile with limited burst release

Second part, led by results:

in vitro release from drug-VPS pills [1]: able to release
Molecule: CC[C@@H](CO)NCCN[C@@H](CC)CO [ethambutol]

duration of detectable serum concentrations [2]: for a week
Molecule: CO[C@H]1/C=C/O[C@@]2(C)Oc3c(C)c(O)c4c(O)c(c(/C=N/N5CCN(C)CC5)c(O)c4c3C2=O)NC(=O)/C(C)=C\C=C\[C@H](C)[C@H](O)[C@@H](C)[C@@H](O)[C@@H](C)[C@H](OC(C)=O)[C@@H]1C [rifampicin]
stability in acid [3]: rapidly degrades in acid
